Measurements taken from ChEMBL document CHEMBL4118235, “The recent progress of isoxazole in medicinal chemistry” (Bioorg Med Chem, 2018).
≈ marks a conversion by molar mass, not a printed value.

Key:
[1] = target: T1, Protein deacetylase HDAC6 (Homo sapiens, UniProt Q9UBN7); assay: Inhibition of recombinant human full length HDAC6 expressed in baculovirus infected Sf9 insect cells using RHKKAC as substrate incubated for 5 to 10 mins followed by substrate addition measured after 2 hrs by fluorescence assay
T1 sequence (Q9UBN7 whole entry): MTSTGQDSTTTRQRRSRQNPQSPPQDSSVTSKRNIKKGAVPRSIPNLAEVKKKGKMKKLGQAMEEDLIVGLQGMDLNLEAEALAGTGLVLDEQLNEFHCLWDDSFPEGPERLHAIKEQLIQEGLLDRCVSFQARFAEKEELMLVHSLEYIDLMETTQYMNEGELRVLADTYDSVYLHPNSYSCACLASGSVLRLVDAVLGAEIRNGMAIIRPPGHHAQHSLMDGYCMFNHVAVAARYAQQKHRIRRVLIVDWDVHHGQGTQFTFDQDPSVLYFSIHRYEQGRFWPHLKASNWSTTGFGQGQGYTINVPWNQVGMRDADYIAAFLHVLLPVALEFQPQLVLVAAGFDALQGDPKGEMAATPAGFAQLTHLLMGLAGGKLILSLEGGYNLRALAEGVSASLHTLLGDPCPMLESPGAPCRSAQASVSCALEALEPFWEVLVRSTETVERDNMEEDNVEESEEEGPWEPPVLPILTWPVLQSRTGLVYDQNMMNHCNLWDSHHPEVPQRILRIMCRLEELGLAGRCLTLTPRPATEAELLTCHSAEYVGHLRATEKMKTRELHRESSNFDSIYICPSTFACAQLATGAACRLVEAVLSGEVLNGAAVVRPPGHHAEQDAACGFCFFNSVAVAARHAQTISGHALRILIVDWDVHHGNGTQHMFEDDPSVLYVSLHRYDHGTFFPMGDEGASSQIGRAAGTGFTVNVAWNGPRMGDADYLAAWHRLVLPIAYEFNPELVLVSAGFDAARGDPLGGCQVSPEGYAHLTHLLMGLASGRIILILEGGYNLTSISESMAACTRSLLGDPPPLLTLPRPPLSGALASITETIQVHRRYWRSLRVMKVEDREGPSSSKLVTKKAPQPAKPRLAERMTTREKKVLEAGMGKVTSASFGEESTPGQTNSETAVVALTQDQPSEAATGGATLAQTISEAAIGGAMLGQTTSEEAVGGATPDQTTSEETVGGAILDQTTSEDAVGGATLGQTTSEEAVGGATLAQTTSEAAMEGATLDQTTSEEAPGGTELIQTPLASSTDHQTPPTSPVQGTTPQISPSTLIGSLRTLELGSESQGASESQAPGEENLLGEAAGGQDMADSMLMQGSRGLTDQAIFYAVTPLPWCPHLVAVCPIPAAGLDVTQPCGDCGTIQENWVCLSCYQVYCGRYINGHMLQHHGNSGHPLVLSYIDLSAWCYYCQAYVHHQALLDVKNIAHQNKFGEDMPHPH

Homo sapiens [2] = species on record: Homo sapiens; assay: Selectivity ratio of IC50 for recombinant human full length HDAC1 expressed in baculovirus infected Sf9 insect cells to IC50 for recombinant human full length HDAC6 expressed in baculovirus infected Sf9 insect cells
Homo sapiens [3] = species on record: Homo sapiens; assay: Selectivity ratio of IC50 for human HDAC2 to IC50 for recombinant human full length HDAC6 expressed in baculovirus infected Sf9 insect cells
Homo sapiens [4] = species on record: Homo sapiens; assay: Selectivity ratio of IC50 for human HDAC3 to IC50 for recombinant human full length HDAC6 expressed in baculovirus infected Sf9 insect cells
Staphylococcus aureus = assay: Antibacterial activity against Staphylococcus aureus ATCC 6538P after 24 hrs by agar well diffusion method; assay type: functional
Escherichia coli = assay: Antibacterial activity against Escherichia coli ATCC 8739 after 24 hrs by agar well diffusion method; assay type: functional; details: ATCC 8739, 24 h
MC-38 = assay: Cytotoxicity against mouse Colon 38 cells after 5 days by hemocytometry; assay type: functional, cell-based; details: MC-38, 120 h
CT26 = assay: Cytotoxicity against mouse CT26 cells after 5 days by hemocytometry; assay type: functional, cell-based; details: CT26, 120 h
[5] = tested on: Mycobacterium tuberculosis; assay: Antimycobacterial activity against Mycobacterium tuberculosis H37Rv; assay type: functional
MCF7 = assay: Antiproliferative activity against human MCF7 cells after 48 hrs by MTT assay; assay type: functional, cell-based; details: MCF7, 48 h
HeLa = assay: Antiproliferative activity against human HeLa cells after 48 hrs by MTT assay; assay type: functional, cell-based
HCT-116 [6] = assay: Antitumor activity against human HCT116 cells xenografted in BALB/c nude mouse assessed as tumor growth inhibition at 50 mg/kg, ip for 16 days; assay type: functional; details: HCT-116, ip, 384 h, read-out: TGI
HCT-116 [7] = assay: Antitumor activity against human HCT116 cells xenografted in BALB/c nude mouse assessed as tumor growth inhibition at 100 mg/kg, ip for 16 days; assay type: functional; details: HCT-116, ip, 384 h, read-out: TGI

## CCCCCCC(=O)Nc1ccc(-c2cc(C(=O)NCc3ccc(C(=O)NO)cc3)no2)cc1
[1]
  IC50: < 0.01 µM
Homo sapiens [2]
  Ratio IC50: > 500
Homo sapiens [3]
  Ratio IC50: > 500
Homo sapiens [4]
  Ratio IC50: > 500

## O=[N+]([O-])c1ccc(-c2cc(C3CC3)no2)cc1
Staphylococcus aureus
  MIC: 25 µg/mL (≈ 109 µM)
Escherichia coli
  MIC: 25 µg/mL (≈ 109 µM)

## O=C(Nc1ccc(Cl)cc1)c1ccno1
MC-38
  IC50: 2.5 µg/mL (≈ 11.2 µM)
CT26
  IC50: 2.5 µg/mL (≈ 11.2 µM)

## CCOC(=O)c1cc(/C=C/c2ccnc3ccccc23)on1
[5]
  MIC: 0.2 µM (≈ 0.0589 µg/mL)

## CC(C)(C)OC(=O)Nc1cccc(-c2cc(C(=O)NCc3ccc(C(=O)NO)cc3)no2)c1
[1]
  IC50: < 0.01 µM
Homo sapiens [2]
  Ratio IC50: > 500
Homo sapiens [3]
  Ratio IC50: > 500
Homo sapiens [4]
  Ratio IC50: > 500

## CCCCCCC(=O)Nc1cccc(-c2cc(C(=O)NCc3ccc(C(=O)NO)cc3)no2)c1
[1]
  IC50: < 0.01 µM
Homo sapiens [2]
  Ratio IC50: > 500
Homo sapiens [3]
  Ratio IC50: > 500
Homo sapiens [4]
  Ratio IC50: > 500

## COc1ccc(-c2cc(-c3cccs3)on2)cc1OC
MCF7
  IC50: 19.5 µM
HeLa
  IC50: 39.2 µM

## CC(C)(C)OC(=O)Nc1ccc(-c2cc(C(=O)NCc3ccc(C(=O)NO)cc3)no2)cc1
[1]
  IC50: < 0.01 µM
Homo sapiens [2]
  Ratio IC50: > 500
Homo sapiens [3]
  Ratio IC50: > 500
Homo sapiens [4]
  Ratio IC50: > 500

## CCc1cc(-c2oncc2-c2ccc(OC)cc2)c(O)cc1OC
HCT-116 [6]
  inhibition in vivo at 50 mg/kg: 49.5%
HCT-116 [7]
  inhibition in vivo at 100 mg/kg: 70.3%
